Consider eight molecules from US20240124491A1, “METHODS AND COMPOUNDS FOR TREATING FRIEDREICH'S ATAXIA” (Design Therapeutics, Inc., priority 2021, published 2024).

What is called EC50 is the concentration needed to bring the measured effect to its halfway point.

For the assay, the system named is human FXN. The assay can be described thus: EC50 assay: FXN mRNA expression by qRT-PCR in GM15850 cells after 48 hrs compound treatment. In kind it is cell-based. The following applies: Homo sapiens, 48 hrs incubation, hFXN expression normalized to hGAPDH (qRT-PCR), read-out: EC50 WT (nM, 48 hr). Put shortly: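 FXN transcript, normalized to GAPDH by TaqMan qRT-PCR, read out after 48 hrs of compound on GM15850 cells plated at 150,000 per well. Dosing used five 3-fold steps from 150 nM final, vehicle 0.01% DMSO.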
In general terms: In qPCR the cycle at which signal appears reflects the starting amount.

For the molecule `Cc1cc(F)cc(C)c1Oc1ccc(C(C)(C)O)cc1-c1cn(C)c(=O)c2[nH]c(C(=O)Nc3ccc(OCCOCCOCCOCCOCCOCCOCCOCCOCCNC(=O)c4cc(NC(=O)c5nc(NC(=O)c6cc(NC(=O)c7ccc8nc(-c9nccn9C)[nH]c8c7)cn6C)cn5C)cn4C)cc3)cc12` [Compound 215, N-[5-({2-[(5-{[26-(4-{4-[2-(4-fluoro-2,6-dimethylphenoxy)-5-(2-hydroxypropan-2-yl)phenyl]-6-methyl-7-oxo-1H-pyrrolo[2,3-c]pyridine-2-amido}phenoxy)-3,6,9,12,15,18,21,24-octaoxahexacosan-1-yl]carbamoyl}-1-methylpyrrol-3-yl)carbamoyl]-1-methylimidazol-4-yl]carbamoyl)-1-methylpyrrol-3-yl]-2-(1-methylimidazol-2-yl)-3H-1,3-benzodiazole-5-carboxamide], the 50% effective concentration (EC50) is above 500 nM.

For `Cc1cc(F)cc(C)c1Oc1ccc(C(C)(C)O)cc1-c1cn(C)c(=O)c2[nH]c(C(=O)Nc3ccc(OCCOCCOCCOCCOCCOCCOCCOCCn4cc(CNC(=O)c5nc(NC(=O)CCNC(=O)c6cc(NC(=O)c7nc(NC(=O)CCNC(=O)c8cc(NC(=O)c9nccn9C)cn8C)cn7C)cn6C)cn5C)nn4)cc3)cc12` [Compound 217, N-({1-[23-(4-{4-[2-(4-fluoro-2,6-dimethylphenoxy)-5-(2-hydroxypropan-2-yl)phenyl]-6-methyl-7-oxo-1H-pyrrolo[2,3-c]pyridine-2-amido}phenoxy)-3,6,9,12,15,18,21-heptaoxatricosan-1-yl]-1,2,3-triazol-4-yl}methyl)-1-methyl-4-[3-({1-methyl-4-[1-methyl-4-(3-{[1-methyl-4-(1-methylimidazole-2-amido)pyrrol-2-yl]formamido}propanamido)imidazole-2-amido]pyrrol-2-yl}formamido)propanamido]imidazole-2-carboxamide], the EC50 was below 100 nM. With `Cc1cc(F)cc(C)c1Oc1ccc(C(C)(C)O)cc1-c1cn(C)c(=O)c2[nH]c(C(=O)Nc3ccc(OCCOCCOCCOCCOCCOCCOCCOCCOCCNC(=O)CCNC(=O)c4nc(NC(=O)CCNC(=O)c5cc(NC(=O)c6nc(NC(=O)CCNC(=O)c7cc(NC(=O)c8nccn8C)c[nH]7)cn6C)c[nH]5)cn4C)cc3)cc12` [Compound 224, N-(5-{[2-({2-[(2-{[26-(4-{4-[2-(4-fluoro-2,6-dimethylphenoxy)-5-(2-hydroxypropan-2-yl)phenyl]-6-methyl-7-oxo-1H-pyrrolo[2,3-c]pyridine-2-amido}phenoxy)-3,6,9,12,15,18,21,24-octaoxahexacosan-1-yl]carbamoyl]ethyl)carbamoyl]-1-methylimidazol-4-yl]carbamoyl)ethyl]carbamoyl]-1H-pyrrol-3-yl)-1-methyl-4-(3-{[4-(1-methylimidazole-2-amido)-1H-pyrrol-2-yl]formamido]propanamido)imidazole-2-carboxamide], the EC50 is below 100 nM. On to `Cc1sc2c(c1C)C(c1ccc(Cl)cc1)=N[C@@H](CC(=O)Nc1ccc(OCCOCCOCCOCCOCCOCCOCCOCCOCCNC(=O)CCNC(=O)CCNC(=O)c3nc(NC(=O)CCNC(=O)c4cc(NC(=O)c5nc(NC(=O)CCNC(=O)c6cc(NC(=O)c7nccn7C)cn6C)cn5C)cn4C)cn3C)cc1)c1nnc(C)n1-2` [Compound 229], for which the EC50 was below 100 nM. As for `Cc1sc2c(c1C)C(c1ccc(Cl)cc1)=N[C@H](CC(=O)Nc1ccc(OCCOCCOCCOCCOCCOCCOCCOCCOCCNC(=O)CCNC(=O)c3nc(NC(=O)CCNC(=O)c4cc(NC(=O)c5nc(NC(=O)CCNC(=O)c6cc(NC(=O)c7nccn7C)cn6C)cn5C)cn4C)cn3C)cc1)c1nnc(C)n1-2` [Compound 231], the EC50 is below 100 nM. On to `Cc1cc(F)cc(C)c1Oc1ccc(C(C)(C)O)cc1-c1cn(C)c(=O)c2[nH]c(C(=O)Nc3ccc(OCCOCCOCCOCCOCCOCCOCCOCCOCCNC(=O)CCNC(=O)c4nc(NC(=O)CCNC(=O)c5cc(NC(=O)c6nc(NC(=O)CCNC(=O)c7cc(NC(=O)c8nccn8C)cn7C)cn6C)cn5C)cn4C)c(OC(=O)c4cc5c(-c6cc(C(C)(C)O)ccc6Oc6c(C)cc(F)cc6C)cn(C)c(=O)c5[nH]4)c3)cc12` [Compound 240], for which the EC50 was below 100 nM.

Regarding `COCCOCCOCCOCCN(CCCCCn1cc(NC(=O)c2nc(NC(=O)CCNC(=O)c3cc(NC(=O)c4nccn4C)cn3C)cn2C)cc1C(=O)NCCC(=O)Nc1cn(C)c(C(=O)NCCC(=O)NCCOCCOCCOCCOCCOCCOCCOCCOCCOc2ccc(NC(=O)c3cc4c(-c5cc(C(C)(C)O)ccc5Oc5c(C)cc(F)cc5C)cn(C)c(=O)c4[nH]3)cc2)n1)CCOCCOCCOCCOC` [Compound 241], the EC50 is above 500 nM. As for `COCCOCCOCCOCCOCCOCCOCCOCCN(CCCCCn1cc(NC(=O)c2nc(NC(=O)CCNC(=O)c3cc(NC(=O)c4nccn4C)cn3C)cn2C)cc1C(=O)NCCC(=O)Nc1cn(C)c(C(=O)NCCC(=O)NCCOCCOCCOCCOCCOCCOCCOCCOCCOc2ccc(NC(=O)c3cc4c(-c5cc(C(C)(C)O)ccc5Oc5c(C)cc(F)cc5C)cn(C)c(=O)c4[nH]3)cc2)n1)CCOCCOCCOCCOCCOCCOCCOCCOC` [Compound 242], the figure is below 100 nM.
